Measured values: patent publication US9097673B2, “Processes and kits for determining multi-drug resistance of cells” (ENZO LIFE SCIENCES, INC., priority 2010, dated 2015)
Values joined by “and” are separate entries in the source; they are usually repeats but may differ in a detail not shown here. Equal entries are not always repeated. Where two headings read alike, the source gives them in different places.

Legend:
CHO K1 cell line = assay: Dye uptake flow cytometry MDR assay; type: cell-based, hamster;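 also: flow cytometry of dye-loaded cells, Kolmogorov-Smirnov D value (0 to 1.0) comparing fluorescence with versus without inhibitor, made negative when the uninhibited control was brighter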
U-2 OS cells = assay: Multiplexed MDR detection by flow cytometry (dye uptake, with PI); type: cell-based, human; settings: for F8 + PI, MAF: Fluo-8 AM + PI; for F8, MAF: Fluo-8 AM probe alone; for R4 + PI compens, MAF / R4 + PI, MAF: Rhod-4 AM + PI; for R4 + PI compens, MAF: compensated; for R4 + PI, MAF: uncompensated; for R4, MAF: Rhod-4 AM probe alone;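 as to all read-outs here: MAF computed as 100 × (MFI with inhibitor − MFI without) / MFI with inhibitor, after 5 min inhibitor pre-incubation then 30 min dye loading at 37 °C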
[1] = tested on: U-2 OS cells expressing GFP; assay: as above; type: cell-based, human; settings: U-2 OS GFP; for R4 + PI compens, MAF / R4 + PI, MAF: Rhod-4 AM + PI; for R4 + PI compens, MAF: compensated; for R4 + PI, MAF: uncompensated; for R4, MAF: Rhod-4 AM probe alone
A549 cell line = assay: Dye uptake flow cytometry MDR assay; type: cell-based, human
HeLa cell line = assay: Dye uptake flow cytometry MDR assay; type: cell-based, human
[2] = CHO K1, Fluo-8 AM + propidium iodide, uncompensated data
[3] = CHO K1, Fluo-8 AM probe alone, uncompensated data
[4] = CHO K1, Rhod-4 AM + propidium iodide, compensated data
[5] = CHO K1, Rhod-4 AM + propidium iodide, uncompensated data
[6] = CHO K1, Rhod-4 AM probe alone, uncompensated data
[7] = CHO K1, dye uptake, average of three independent experiments (Table 10)
[8] = A549, dye uptake, average of three independent experiments (Table 10)
[9] = CHO K1, dual probes Rhod-4 AM (FL2) + DiOC2(3) (FL1)
[10] = CHO K1, dye uptake, average of three representative experiments (Table 6)
[11] = CHO K1, triple probes DiOC2(3) (FL1) + Rhod-4 AM (FL2) + Pheophorbide A (FL3)
[12] = A549, dye uptake, average of three representative experiments (Table 6)
[13] = HeLa, dye uptake, average of three representative experiments (Table 6)
[14] = CHO K1, dual probes Fluo-8 AM (FL1) + Pheophorbide A (FL3)
[15] = CHO K1, dual probes Rhod-4 AM (FL2) + Pheophorbide A (FL3)
[16] = CHO K1, triple probes CMFDA (FL1) + Rhod-4 AM (FL2) + Pheophorbide A (FL3)
[17] = CHO K1, dual probes Rhod-4 AM (FL2) + CMFDA (FL1)

## CN(C)C(=O)CCSC(SCCC(=O)O)c1cccc(/C=C/c2ccc3ccc(Cl)cc3n2)c1 (stereo not shown) [MK-571]
CHO K1 cell line; [2]
  F8 + PI, D-values: 0.92
CHO K1 cell line; [3]
  Fluo-8 ™, D: 0.89
CHO K1 cell line; [4]
  R4 + PI, D-values: 0.94
CHO K1 cell line; [5]
  R4 + PI, D-values: 0.95
CHO K1 cell line; [6]
  Rhod4 ™ (D-values): .94
U-2 OS cells
  F8 + PI, MAF: 52.9
  F8, MAF: 65.4
  R4 + PI compens, MAF: 54.5
  R4 + PI, MAF: 49.7
  R4, MAF: 62.8
[1]
  R4 + PI compens, MAF: 43.3
  R4 + PI, MAF: 51.9
  R4, MAF: 49.6

## O=C1c2c(O)ccc(O)c2C(=O)c2c(NCCNCCO)ccc(NCCNCCO)c21 [Mitoxantrone, mitoxantrone]
CHO K1 cell line; [7]
  D-value, Cyclosporine A: 0.34
  D-value, FTC: 0.21
  D-value, MK-571: 0.18
  D-value, Novobiocin: 0.22
  D-value, Verapamil: 0.42
A549 cell line; [8]
  D-value, Cyclosporine A: 0.27
  D-value, FTC: 0.28
  D-value, MK-571: 0.37
  D-value, Novobiocin: 0.28
  D-value, Verapamil: 0.12

## COc1ccc2c3c([nH]c2c1)[C@H](C=C(C)C)N1C(=O)[C@@H]2CCCN2C(=O)[C@@H]1C3 [FTC, fumitremorgin C]
U-2 OS cells
  F8 + PI, MAF: −6.3
  F8, MAF: 5.0
  R4 + PI compens, MAF: 12.6
  R4 + PI, MAF: −9.3
  R4, MAF: 9.9
[1]
  R4 + PI compens, MAF: 6.2
  R4 + PI, MAF: 25.7
  R4, MAF: 15.0

## CO[C@@H]1[C@@H](OC(N)=O)[C@@H](O)[C@H](Oc2ccc3c(O)c(NC(=O)c4ccc(O)c(CC=C(C)C)c4)c(=O)oc3c2C)OC1(C)C [Novobiocin, novobiocin]
CHO K1 cell line; [2]
  F8 + PI, D-values: 0.61
CHO K1 cell line; [3]
  Fluo-8 ™, D: 0.54
CHO K1 cell line; [4]
  R4 + PI, D-values: 0.66
CHO K1 cell line; [5]
  R4 + PI, D-values: 0.7
CHO K1 cell line; [6]
  Rhod4 ™ (D-values): .64
U-2 OS cells
  F8 + PI, MAF: 12.3
  F8, MAF: 17.9
  R4 + PI compens, MAF: 15.1
  R4 + PI, MAF: 10.7
  R4, MAF: 18.7
[1]
  R4 + PI compens, MAF: 2.8
  R4 + PI, MAF: 27.9
  R4, MAF: 17.9

## COc1cccc2c1C(=O)c1c(O)c3c(c(O)c1C2=O)C[C@@](O)(C(=O)CO)C[C@@H]3O[C@H]1C[C@H](N)[C@H](O)[C@H](C)O1 [Doxorubicin, doxorubicin]
CHO K1 cell line; [7]
  D-value, Cyclosporine A: 0.42
  D-value, FTC: 0.22
  D-value, MK-571: 0.35
  D-value, Novobiocin: 0.32
  D-value, Verapamil: 0.27
A549 cell line; [8]
  D-value, Cyclosporine A: 0.14
  D-value, FTC: 0.18
  D-value, MK-571: 0.24
  D-value, Novobiocin: 0.28
  D-value, Verapamil: 0.06

## CCN1C(=CC=Cc2oc3ccccc3[n+]2CC)Oc2ccccc21.[I-] [DiOC2(3), 3,3′-diethyloxacarbocyanine iodide]
CHO K1 cell line
  D-value, Fumitremorgan C: 0
CHO K1 cell line; [9]
  D-values Post Inhibitor Treatment (compared to uninhibited cells), CsA: 0.94
  D-values Post Inhibitor Treatment (compared to uninhibited cells), FTC: 0.16
  D-values Post Inhibitor Treatment (compared to uninhibited cells), MK-571: 0.13
  D-values Post Inhibitor Treatment (compared to uninhibited cells), Verapamil: 0.96
CHO K1 cell line; [10]
  D-value, Probenecid: 0.01
  D-value, Verapamil: 0.96
CHO K1 cell line; [11]
  D-values Post Inhibitor Treatment (compared to uninhibited cells), CsA: 0.98
  D-values Post Inhibitor Treatment (compared to uninhibited cells), FTC: 0.11
  D-values Post Inhibitor Treatment (compared to uninhibited cells), MK-571: 0.13
  D-values Post Inhibitor Treatment (compared to uninhibited cells), Verapamil: 0.98
A549 cell line
  D-value, Fumitremorgan C: 0.03
A549 cell line; [12]
  D-value, Probenecid: 0
  D-value, Verapamil: 0.07
HeLa cell line
  D-value, Fumitremorgan C: 0.07
HeLa cell line; [13]
  D-value, Probenecid: 0.06
  D-value, Verapamil: 0

## COc1ccc(CCN(C)CCCC(C#N)(c2ccc(OC)c(OC)c2)C(C)C)cc1OC (stereo not shown) [Verapamil, verapamil]
CHO K1 cell line
  F8 + PI, D-values: 0.94
  Fluo-8 ™, D: 0.92
  R4 + PI, D-values: 0.96 and 0.95
  Rhod4 ™ (D-values): 0.94
U-2 OS cells
  F8 + PI, MAF: 33.0
  F8, MAF: 63.4
  R4 + PI compens, MAF: 54.1
  R4 + PI, MAF: 35.8
  R4, MAF: 42.5
[1]
  R4 + PI compens, MAF: 38.0
  R4 + PI, MAF: 41.3
  R4, MAF: 30.4

## C=Cc1c(C)c2cc3nc(c4c5[nH]c(cc6nc(cc1[nH]2)C(C)=C6CC)c(C)c5C(=O)[C@@H]4C(=O)OC)[C@@H](CCC(=O)O)[C@@H]3C [Pheophorbide A, pheophorbide A]
CHO K1 cell line; [14]
  D-values Post Inhibitor Treatment (compared to uninhibited cells), CsA: 0.25
  D-values Post Inhibitor Treatment (compared to uninhibited cells), FTC: 0.33
  D-values Post Inhibitor Treatment (compared to uninhibited cells), MK-571: 0.15
  D-values Post Inhibitor Treatment (compared to uninhibited cells), Verapamil: 0.14
CHO K1 cell line; [15]
  D-values Post Inhibitor Treatment (compared to uninhibited cells), CsA: 0.25
  D-values Post Inhibitor Treatment (compared to uninhibited cells), FTC: 0.34
  D-values Post Inhibitor Treatment (compared to uninhibited cells), MK-571: 0.14
  D-values Post Inhibitor Treatment (compared to uninhibited cells), Verapamil: 0.11
CHO K1 cell line; [10]
  D-value, Fumitremorgan C: 0.25
  D-value, Probenecid: 0.03
  D-value, Verapamil: 0.02
CHO K1 cell line; [16]
  D-values Post Inhibitor Treatment (compared to uninhibited cells), CsA: 0.20
  D-values Post Inhibitor Treatment (compared to uninhibited cells), FTC: 0.27
  D-values Post Inhibitor Treatment (compared to uninhibited cells), MK-571: 0.09
  D-values Post Inhibitor Treatment (compared to uninhibited cells), Verapamil: 0.18
CHO K1 cell line; [11]
  D-values Post Inhibitor Treatment (compared to uninhibited cells), CsA: 0.4
  D-values Post Inhibitor Treatment (compared to uninhibited cells), FTC: 0.41
  D-values Post Inhibitor Treatment (compared to uninhibited cells), MK-571: 0.13
  D-values Post Inhibitor Treatment (compared to uninhibited cells), Verapamil: 0.17
A549 cell line; [12]
  D-value, Fumitremorgan C: 0.35
  D-value, Probenecid: 0.16
  D-value, Verapamil: 0.16
HeLa cell line; [13]
  D-value, Fumitremorgan C: 0
  D-value, Probenecid: 0
  D-value, Verapamil: 0

## CCCN(CCC)S(=O)(=O)c1ccc(C(=O)O)cc1 [Probenecid, probenecid]
U-2 OS cells
  F8 + PI, MAF: 23.1
  F8, MAF: 57.5
  R4 + PI compens, MAF: 42.4
  R4 + PI, MAF: 24.0
  R4, MAF: 41.2
[1]
  R4 + PI compens, MAF: 38.5
  R4 + PI, MAF: 47.7
  R4, MAF: 34.0

## CC(=O)Oc1ccc2c(c1)Oc1cc(OC(C)=O)ccc1C21OC(=O)c2cc(CCl)ccc21 [CMFDA, chloromethylfluorescein diacetate]
CHO K1 cell line; [17]
  D-values Post Inhibitor Treatment (compared to uninhibited cells), CsA: 0.49
  D-values Post Inhibitor Treatment (compared to uninhibited cells), FTC: 0.06
  D-values Post Inhibitor Treatment (compared to uninhibited cells), MK-571: 0.91
  D-values Post Inhibitor Treatment (compared to uninhibited cells), Verapamil: 0.1
CHO K1 cell line; [10]
  D-value, Fumitremorgan C: 0.09
  D-value, Probenecid: 0.7
  D-value, Verapamil: 0.19
CHO K1 cell line; [16]
  D-values Post Inhibitor Treatment (compared to uninhibited cells), CsA: 0.47
  D-values Post Inhibitor Treatment (compared to uninhibited cells), FTC: 0.14
  D-values Post Inhibitor Treatment (compared to uninhibited cells), MK-571: 0.89
  D-values Post Inhibitor Treatment (compared to uninhibited cells), Verapamil: 0.10
A549 cell line; [12]
  D-value, Fumitremorgan C: 0.21
  D-value, Probenecid: 0.29
  D-value, Verapamil: 0.04
HeLa cell line; [13]
  D-value, Fumitremorgan C: 0.12
  D-value, Probenecid: 0.03
  D-value, Verapamil: 0
